One assay has as its target T1, JAK2 (Homo sapiens, UniProt O60674).
T1 construct: host or cells: baculovirus expression system
As to the kind of experiment: Recombinant Human JAK2 Kinase Assay (TRF). It is filed as biochemical. The note with it: JAK2 Kinase Inhibition; read-out: JAK2 Potency. The method, boiled down: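 Kinase activity of baculovirus-expressed JAK2 is followed on a surface-immobilised biotinylated peptide, with the reaction run for 20 min at room temperature in buffer containing 0.2 μM ATP and manganese. Phosphorylation is read with Eu-N1 PY100 antibody.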

For another assay, the target named is T2, ALK (Homo sapiens, UniProt Q9UM73).
T2 construct: host or cells: baculovirus expression system
T2 sequence (Q9UM73 19-1620): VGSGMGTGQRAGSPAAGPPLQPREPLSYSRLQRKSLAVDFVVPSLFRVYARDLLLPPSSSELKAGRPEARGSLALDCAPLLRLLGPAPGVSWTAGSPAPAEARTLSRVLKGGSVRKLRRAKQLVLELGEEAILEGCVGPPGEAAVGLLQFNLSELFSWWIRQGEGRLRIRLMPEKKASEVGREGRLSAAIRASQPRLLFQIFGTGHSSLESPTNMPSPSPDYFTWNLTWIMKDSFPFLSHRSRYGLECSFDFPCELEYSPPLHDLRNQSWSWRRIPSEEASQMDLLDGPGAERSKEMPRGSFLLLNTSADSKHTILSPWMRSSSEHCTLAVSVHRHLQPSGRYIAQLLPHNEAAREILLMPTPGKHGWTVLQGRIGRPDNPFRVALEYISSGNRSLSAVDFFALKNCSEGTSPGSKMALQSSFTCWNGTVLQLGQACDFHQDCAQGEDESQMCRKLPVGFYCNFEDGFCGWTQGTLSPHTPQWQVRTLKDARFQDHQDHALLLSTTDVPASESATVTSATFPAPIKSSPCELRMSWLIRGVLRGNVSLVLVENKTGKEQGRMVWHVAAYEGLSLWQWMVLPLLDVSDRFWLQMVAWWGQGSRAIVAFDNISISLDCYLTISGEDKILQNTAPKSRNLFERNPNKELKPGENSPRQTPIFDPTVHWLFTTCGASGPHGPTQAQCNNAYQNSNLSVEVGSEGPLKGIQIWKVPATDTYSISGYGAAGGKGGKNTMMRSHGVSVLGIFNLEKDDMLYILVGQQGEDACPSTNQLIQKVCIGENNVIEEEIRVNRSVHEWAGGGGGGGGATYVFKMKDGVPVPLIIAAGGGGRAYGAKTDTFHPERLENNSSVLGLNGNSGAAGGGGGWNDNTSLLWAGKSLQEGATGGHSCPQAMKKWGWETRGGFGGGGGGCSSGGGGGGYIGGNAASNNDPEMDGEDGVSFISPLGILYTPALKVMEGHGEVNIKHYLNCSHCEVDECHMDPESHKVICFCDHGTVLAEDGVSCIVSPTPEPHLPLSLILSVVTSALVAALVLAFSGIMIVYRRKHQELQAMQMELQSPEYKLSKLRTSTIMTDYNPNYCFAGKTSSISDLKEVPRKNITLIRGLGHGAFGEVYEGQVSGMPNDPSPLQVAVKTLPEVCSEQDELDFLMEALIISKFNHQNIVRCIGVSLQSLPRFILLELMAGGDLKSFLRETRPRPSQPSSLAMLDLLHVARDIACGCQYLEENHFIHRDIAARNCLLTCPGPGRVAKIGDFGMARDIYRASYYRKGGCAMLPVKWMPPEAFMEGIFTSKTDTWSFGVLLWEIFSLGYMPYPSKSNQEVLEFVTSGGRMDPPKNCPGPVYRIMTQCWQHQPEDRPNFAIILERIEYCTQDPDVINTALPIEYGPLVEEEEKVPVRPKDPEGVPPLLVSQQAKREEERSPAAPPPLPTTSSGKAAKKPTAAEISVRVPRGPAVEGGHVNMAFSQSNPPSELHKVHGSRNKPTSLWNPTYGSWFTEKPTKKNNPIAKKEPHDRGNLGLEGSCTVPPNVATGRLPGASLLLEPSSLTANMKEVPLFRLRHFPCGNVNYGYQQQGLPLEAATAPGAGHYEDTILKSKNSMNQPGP
The assay can be described thus: ALK Kinase Assay (ELISA/TRF, PLC-γ substrate). The class given is biochemical. To be noted: ALK Kinase Inhibition; read-out: ALK Potency. The method, boiled down:
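Wells were coated with 10 μg/mL phospholipase C-γ substrate in TBS, and the reaction was started by adding 30 ng/ml ALK enzyme and run at 37° C for 15 minutes. Phosphorylated product was detected with Eu-N1-labeled PT66 antibody, and IC50 values came from sigmoidal variable-slope fits of percent inhibition against log concentration.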
Background: An ELISA detects its analyte on a solid surface through an enzyme-linked reagent.

T1 sequence (O60674 whole entry): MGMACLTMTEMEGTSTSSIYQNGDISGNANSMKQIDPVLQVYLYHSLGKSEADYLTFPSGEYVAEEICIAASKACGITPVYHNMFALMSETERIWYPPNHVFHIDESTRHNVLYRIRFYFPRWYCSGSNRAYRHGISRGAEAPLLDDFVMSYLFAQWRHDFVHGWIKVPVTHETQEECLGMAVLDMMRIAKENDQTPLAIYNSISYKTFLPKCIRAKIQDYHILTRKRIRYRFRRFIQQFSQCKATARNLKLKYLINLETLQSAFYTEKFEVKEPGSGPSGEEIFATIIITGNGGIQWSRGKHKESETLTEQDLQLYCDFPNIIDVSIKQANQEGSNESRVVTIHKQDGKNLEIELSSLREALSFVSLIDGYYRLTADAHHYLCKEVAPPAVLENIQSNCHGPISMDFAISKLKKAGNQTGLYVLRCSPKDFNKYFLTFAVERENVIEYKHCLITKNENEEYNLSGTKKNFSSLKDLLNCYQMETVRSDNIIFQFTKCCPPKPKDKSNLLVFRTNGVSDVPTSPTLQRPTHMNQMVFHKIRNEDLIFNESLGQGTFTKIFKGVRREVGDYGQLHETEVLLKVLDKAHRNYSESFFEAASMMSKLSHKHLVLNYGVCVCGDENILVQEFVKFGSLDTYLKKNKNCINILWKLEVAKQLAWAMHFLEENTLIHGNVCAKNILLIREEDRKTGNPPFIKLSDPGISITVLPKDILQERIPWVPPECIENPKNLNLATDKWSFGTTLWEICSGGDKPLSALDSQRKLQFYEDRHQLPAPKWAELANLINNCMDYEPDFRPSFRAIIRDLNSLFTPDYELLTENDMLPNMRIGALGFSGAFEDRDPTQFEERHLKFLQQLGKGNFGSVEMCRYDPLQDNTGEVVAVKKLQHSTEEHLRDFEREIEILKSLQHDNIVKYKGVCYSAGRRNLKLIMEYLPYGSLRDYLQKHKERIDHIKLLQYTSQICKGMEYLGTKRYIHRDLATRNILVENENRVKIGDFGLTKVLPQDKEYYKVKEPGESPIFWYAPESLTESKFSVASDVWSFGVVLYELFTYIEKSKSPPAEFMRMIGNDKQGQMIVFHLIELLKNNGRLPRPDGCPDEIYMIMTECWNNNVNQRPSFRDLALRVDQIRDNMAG

As to `COc1ccc(-c2ccc3cnc(Nc4ccc(N5CCN(CC(N)=O)CC5)c(F)c4)nn23)cn1` [Example 1414, 2-(4-{2-Fluoro-4-[7-(6-methoxy-pyridin-3-yl)-pyrrolo[2,1-f][1,2,4]triazin-2-ylamino]-phenyl}-piperazin-1-yl)-acetamide], the IC50 on JAK2 was less than 100 nM; on ALK it was 1000 to 10000 nM.

As for `COc1ccc(-c2ccc3cnc(Nc4ccc(N5CCN(CC(N)=O)CC5)c(F)c4)nn23)cn1` [Example 1415, 2-(4-{2-Fluoro-4-[7-(6-methoxy-pyridin-3-yl)-pyrrolo[2,1-f][1,2,4]triazin-2-ylamino]-phenyl}-piperazin-1-yl)-acetamide], the IC50 on JAK2 is less than 100 nM; at ALK it was 100 to 1000 nM.

As to `COc1ccccc1-c1ccc2cnc(Nc3ccc(N4CCN(CC(N)=O)CC4)c(F)c3)nn12` [Example 1416, 2-(4-{2-Fluoro-4-[7-(2-methoxy-phenyl)-pyrrolo[2,1-f][1,2,4]triazin-2-ylamino]-phenyl}-piperazin-1-yl)-acetamide], the IC50 is less than 100 nM on JAK2 and 100 to 1000 nM at ALK.

On to `COc1ccc(-c2ccc3cnc(Nc4ccc(C(=O)N5CCN(C)CC5)cc4)nn23)cn1` [Example 1420, {4-[7-(6-Methoxy-pyridin-3-yl)-pyrrolo[2,1-f][1,2,4]triazin-2-ylamino]-phenyl}-(4-methyl-piperazin-1-yl)-methanone], for which the IC50 on JAK2 is less than 100 nM; at ALK, 1000 to 10000 nM.

Take `CN(c1ccccc1-c1ccc2cnc(Nc3ccc(N4CCN(CC(N)=O)CC4)c(F)c3)nn12)S(C)(=O)=O` [Example 1422, 2-[4-(2-Fluoro-4-{7-[2-(methanesulfonyl-methyl-amino)-phenyl]-pyrrolo[2,1-f][1,2,4]triazin-2-ylamino}-phenyl)-piperazin-1-yl]-acetamide]: the IC50 is less than 100 nM at JAK2 and 100 to 1000 nM at ALK.

`CN1CCN(C(=O)c2ccc(Nc3ncc4ccc(-c5ccccc5N(C)S(C)(=O)=O)n4n3)cc2)CC1` [Example 1425, N-Methyl-N-(2-{2-[4-(4-methyl-piperazine-1-carbonyl)-phenylamino]-pyrrolo[2,1-f][1,2,4]triazin-7-yl}-phenyl)-methanesulfonamide]: the IC50 at JAK2 is less than 100 nM; at ALK it was 100 to 1000 nM.

`NC(=O)CN1CCC(c2ccc(Nc3ncc4ccc(-c5ccccc5O)n4n3)cc2)CC1` [Example 1427, 2-(4-{4-[7-(2-Hydroxy-phenyl)-pyrrolo[2,1-f][1,2,4]triazin-2-ylamino]-phenyl}-piperidin-1-yl)-acetamide]: the IC50 at JAK2 is less than 100 nM; at ALK it was 100 to 1000 nM.

For the molecule `CN(c1ccccc1-c1ccc2cnc(Nc3ccc(CN4CCCC4)cc3)nn12)S(C)(=O)=O` [Example 1428, N-Methyl-N-{2-[2-(4-pyrrolidin-1-ylmethyl-phenylamino)-pyrrolo[2,1-f][1,2,4]triazin-7-yl]-phenyl}-methane sulfonamide], the IC50 on JAK2 was less than 100 nM; at ALK it was 100 to 1000 nM.

Regarding `CC(C)(C)NS(=O)(=O)c1cccc(-c2ccc3cnc(Nc4ccc(CN5CCCC5)cc4)nn23)c1` [Example 1429, N-tert-Butyl-3-[2-(4-pyrrolidin-1-ylmethyl-phenylamino)-pyrrolo[2,1-f][1,2,4]triazin-7-yl]-benzenesulfonamide], the IC50 on JAK2 is less than 100 nM; at ALK it was 100 to 1000 nM.

As to `COc1ccccc1-c1ccc2cnc(Nc3ccc(CN4CCCC4)cc3)nn12` [Example 1430, [7-(2-Methoxy-phenyl)-pyrrolo[2,1-f][1,2,4]triazin-2-yl]-(4-pyrrolidin-1-ylmethyl-phenyl)-amine], the IC50 on JAK2 and on ALK was less than 100 nM each time.

For `C[C@H](O)CN1CCC(c2ccc(Nc3ncc4ccc(-c5cccc(S(C)(=O)=O)c5)n4n3)cc2)CC1` [Example 1431, (S)-1-(4-{4-[7-(3-Methanesulfonyl-phenyl)-pyrrolo[2,1-f][1,2,4]triazin-2-ylamino]-phenyl}-piperidin-1-yl)-propan-2-ol], the values for the IC50 at JAK2 and at ALK were less than 100 nM and 100 to 1000 nM, respectively.

Consider `C[C@H](O)CN1CCC(c2ccc(Nc3ncc4ccc(-c5ccc(S(C)(=O)=O)cc5)n4n3)cc2)CC1` [Example 1432, (S)-1-(4-{4-[7-(4-Methanesulfonyl-phenyl)-pyrrolo[2,1-f][1,2,4]triazin-2-ylamino]-phenyl}-piperidin-1-yl)-propan-2-ol], for which the IC50 on JAK2 and at ALK was less than 100 nM in each case.

For `CN(C)Cc1ccc(-c2ccc3cnc(Nc4ccc(C5CCN(CC(N)=O)CC5)cc4)nn23)cc1` [Example 1433, 2-(4-{4-[7-(4-Dimethylaminomethyl-phenyl)-pyrrolo[2,1-f][1,2,4]triazin-2-ylamino]-phenyl}-piperidin-1-yl)-acetamide], the IC50 at JAK2 and at ALK was 1000 to 10000 nM throughout.

For `CS(=O)(=O)c1cccc(-c2ccc3cnc(Nc4ccc(C5CCN(CC(N)=O)CC5)cc4)nn23)c1` [Example 1434, 2-(4-{4-[7-(3-Methanesulfonyl-phenyl)-pyrrolo[2,1-f][1,2,4]triazin-2-ylamino]-phenyl}-piperidin-1-yl)-acetamide], the IC50 at JAK2 is less than 100 nM; on ALK, 100 to 1000 nM.

For `CS(=O)(=O)c1ccc(-c2ccc3cnc(Nc4ccc(C5CCN(CC(N)=O)CC5)cc4)nn23)cc1` [Example 1435, 2-(4-{4-[7-(4-Methanesulfonyl-phenyl)-pyrrolo[2,1-f][1,2,4]triazin-2-ylamino]-phenyl}-piperidin-1-yl)-acetamide], the IC50 on JAK2 was less than 100 nM; at ALK, 100 to 1000 nM.

`CN1CCN(c2ccc(Nc3ncc4ccc(-c5ccc(S(C)(=O)=O)cc5)n4n3)cc2F)CC1` [Example 1437, [3-Fluoro-4-(4-methyl-piperazin-1-yl)-phenyl]-[7-(4-methanesulfonyl-phenyl)-pyrrolo[2,1-f][1,2,4]triazin-2-yl]-amine]: the results for the IC50 on JAK2 and on ALK were less than 100 nM and 100 to 1000 nM, respectively.

For `COc1cc(N2CCCC(N3CCOCC3)C2)ccc1Nc1ncc2ccc(-c3ccccc3OC)n2n1` (centres unmarked) [Example 1444, [2-Methoxy-4-(3-morpholin-4-yl-piperidin-1-yl)-phenyl]-[7-(2-methoxy-phenyl)-pyrrolo[2,1-f][1,2,4]triazin-2-yl]-amine], the IC50 on JAK2 was 100 to 1000 nM; on ALK it was less than 100 nM.

Take `COc1cc(N2CCCC(N3CC(C)OC(C)C3)C2)ccc1Nc1ncc2ccc(-c3ccccc3OC)n2n1` (centres unmarked) [Example 1445, {4-[3-(2,6-Dimethyl-morpholin-4-yl)-piperidin-1-yl]-2-methoxy-phenyl}-[7-(2-methoxy-phenyl)-pyrrolo[2,1-f][1,2,4]triazin-2-yl]-amine]: the IC50 at JAK2 is 100 to 1000 nM; on ALK, less than 100 nM.

For the molecule `COc1cc(N2CCC(N3CCOCC3)CC2)ccc1Nc1ncc2ccc(-c3ccccc3NS(C)(=O)=O)n2n1` [Example 1450, N-(2-{2-[2-Methoxy-4-(4-morpholin-4-yl-piperidin-1-yl)-phenylamino]-pyrrolo[2,1-f][1,2,4]triazin-7-yl}-phenyl)-methanesulfonamide], the IC50 at JAK2 and at ALK was 100 to 1000 nM each time.

For `COc1cc(N2CCC(N3CCOCC3)CC2)ccc1Nc1ncc2ccc(-c3ccccc3OC(C)C)n2n1` [Example 1451, [7-(2-Isopropoxy-phenyl)-pyrrolo[2,1-f][1,2,4]triazin-2-yl]-[2-methoxy-4-(4-morpholin-4-yl-piperidin-1-yl)-phenyl]-amine], the IC50 on JAK2 and at ALK was less than 100 nM throughout.

On to `COc1ccccc1-c1ccc2cnc(Nc3ccc4c(c3OC)CCC(N3CCOCC3)CC4)nn12` (centres unmarked) [Example 1452, (1-Methoxy-7-morpholin-4-yl-6,7,8,9-tetrahydro-5H-benzo cyclohepten-2-yl)-[7-(2-methoxy-phenyl)-pyrrolo[2,1-f][1,2,4]triazin-2-yl]-amine], for which the IC50 was 100 to 1000 nM at JAK2 and less than 100 nM on ALK.

On to `COc1cc(N2CCC(N3CCOCC3)CC2)ccc1Nc1ncc2ccc(-c3ccccc3N(C)S(C)(=O)=O)n2n1` [Example 1453, N-(2-{2-[2-Methoxy-4-(4-morpholin-4-yl-piperidin-1-yl)-phenylamino]-pyrrolo[2,1-f][1,2,4]triazin-7-yl}-phenyl)-N-methyl-methanesulfonamide], for which the IC50 on JAK2 is 100 to 1000 nM; at ALK, less than 100 nM.

Turning to `COc1cc(N2CCC(N3CCOCC3)CC2)ccc1Nc1ncc2ccc(-c3ccccc3C(C)=O)n2n1` [Example 1454, 1-(2-{2-[2-Methoxy-4-(4-morpholin-4-yl-piperidin-1-yl)-phenylamino]-pyrrolo[2,1-f][1,2,4]triazin-7-yl}-phenyl)-ethanone], the IC50 was 100 to 1000 nM on JAK2 and less than 100 nM at ALK.

Regarding `COc1cc(N2CCC(N3CCOCC3)CC2)ccc1Nc1ncc2ccc(-c3ccccc3OC(F)(F)F)n2n1` [Example 1455, [2-Methoxy-4-(4-morpholin-4-yl-piperidin-1-yl)-phenyl]-[7-(2-trifluoromethoxy-phenyl)-pyrrolo[2,1-f][1,2,4]triazin-2-yl]-amine], the IC50 on JAK2 and at ALK was less than 100 nM throughout.

`CN(c1ccccc1-c1ccc2cnc(Nc3ccc(N4CCC(N5CCOCC5)CC4)cc3)nn12)S(C)(=O)=O` [Example 1456, N-Methyl-N-(2-{2-[4-(4-morpholin-4-yl-piperidin-1-yl)-phenylamino]-pyrrolo[2,1-f][1,2,4]triazin-7-yl}-phenyl)-methanesulfonamide]: the IC50 at JAK2 and on ALK was less than 100 nM each time.

The values are drawn from patent US8471005B2 (Cephalon, Inc., priority 2008, dated 2013).
